Counter-ions that a name gives are not always drawn. Like-named read-outs stand apart in the source and are kept apart here.
Tests used:
5-lipoxygenase [1] = target: T1, 5-lipoxygenase (Homo sapiens, UniProt P09917); assay: Inhibition of 5-lipoxygenase (5-HETE biosynthesis) in human polymorphonuclear leukocytes; assay type: cell-based; details: human PMN's, 5-HETE band vs control; test concentration 1 microM; read-out: Inhibition of 5-LO % at 1 M
T1 construct: Human PMN's (5 x 10⁶ cells/0.5 mL) in pH 7.2 phosphate buffer; endogenous in cells; host or cells: human polymorphonuclear leukocytes (PMN)
T1 sequence (P09917 1-674): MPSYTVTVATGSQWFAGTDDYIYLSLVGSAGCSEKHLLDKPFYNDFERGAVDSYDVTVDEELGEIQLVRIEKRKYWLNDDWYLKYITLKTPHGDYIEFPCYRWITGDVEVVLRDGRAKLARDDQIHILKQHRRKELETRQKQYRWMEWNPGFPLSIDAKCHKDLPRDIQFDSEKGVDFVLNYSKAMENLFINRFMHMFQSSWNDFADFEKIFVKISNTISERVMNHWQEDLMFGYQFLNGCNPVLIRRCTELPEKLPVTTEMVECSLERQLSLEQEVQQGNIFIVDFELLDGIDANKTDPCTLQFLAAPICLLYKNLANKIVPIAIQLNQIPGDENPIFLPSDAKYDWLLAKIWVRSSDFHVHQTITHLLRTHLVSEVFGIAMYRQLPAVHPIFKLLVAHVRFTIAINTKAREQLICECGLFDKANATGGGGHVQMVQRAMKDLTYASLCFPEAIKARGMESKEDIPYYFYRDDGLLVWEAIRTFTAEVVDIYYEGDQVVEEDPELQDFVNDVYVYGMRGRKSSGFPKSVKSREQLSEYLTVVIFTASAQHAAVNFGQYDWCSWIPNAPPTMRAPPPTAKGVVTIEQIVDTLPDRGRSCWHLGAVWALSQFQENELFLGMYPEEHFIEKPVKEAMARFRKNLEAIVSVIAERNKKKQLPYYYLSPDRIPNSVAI
Description: Inhibition of 5-Lipoxygenase in Human Polymorphonuclear Leukocytes (PMN's)
The inhibition of 5-lipoxygenase is measured by determining whether and to what extent test compounds inhibit the amount of 5-HETE biosynthesized by human PMN's. 5-HETE biosynthesis serves as a marker for arachidonic acid metabolism by 5-lipoxygenase.
Human PMN's (5 x 10⁶ cells/0.5 mL) in pH 7.2 phosphate buffer containing Ca²⁺ (0.6 mM) and Mg²⁺ (1.0 mM) were incubated with test compound for 15 minutes at 37°C with shaking. Calcium ionophore A23187 (0.25 mM, 0.01 mL) and [¹⁴C] arachidonic acid (0.10 microCi in 0.025 mL 0.01N NaOH) were added, and the mixture incubated another 2.5 minutes. The reaction was terminated by the addition of 0.025 mL of 1.0 N HCl. The mixture was then extracted with ethyl acetate-methylene chloride (2:3) supplemented with 12 microgram/mL cold arachidonic acid to reduce degradation of the metabolites. After concentrating the organic phase, the number of microlitres containing 5 x 10⁴ cpm was determined and that volume applied to a silica gel plate. The plate was developed in methylene-chloride-methanol-acetic acid-water (90:8:1:0.8), air dried, and counted on a Berthold linear TLC analyzer. The integrated area of the 5-HETE band was determined and compared with the control (no drug).
In cases where the IC₅₀ was determined, the result is shown in microM.

5-lipoxygenase [2] = assay: Inhibition of antigen-induced, late phase inflammatory cell infiltration in guinea pigs; assay type: in vivo; details: 60 minutes before antigen challenge, lung lavage four hours after challenge
Description: Inhibition of Antigen-Induced, Late Phase Inflammatory Cell Infiltration in Guinea Pigs
This model is used to measure the ability of a drug to inhibit 5-lipoxygenase in vivo. In addition to SRS-A, a chemotactic substance LTB₄ is also released by cells in the sensitized guinea pig lung upon stimulation by antigen. As a result there is a measurable influx of cells into the lung. Therefore, an inhibitor of 5-lipoxygenase could reduce the formation of LTB₄ and thereby reduce the cell influx into the lung.
Male outbred Hartley strain albino guinea pigs (250-300 grams) were sensitized to ovalbumin as in the procedure for inhibition of antigen-induced, SRS-A mediated bronchioconstriction in conscious guinea pigs.
Sensitized guinea pigs were fasted and pretreated with pyrilamine and indomethacin as in bronchioconstriction testing procedure. Test compounds, suspended in 1% acacia, were administered 60 minutes before antigen challenge. […] Whole lung lavage was performed with three 5 mL aliquots of normal saline buffered with sodium bicarbonate.
Total cell counts were performed on a Coulter Counter, and differential cell counts were performed. Compounds were evaluated for their ability to alter the antigen-induced total cell influx and, more specifically, neutrophil (PMN) influx.

[3] = tested on: A23187-Induced LTB₄ Generation; assay: Ex vivo inhibition of A23187-induced LTB4 generation in squirrel monkey blood; parameters: species or system Squirrel Monkeys; details: Primates
Description: Ex Vivo Inhibition of A23187-Induced LTB₄ Generation in Squirrel Monkeys.
Incubation of squirrel monkey whole blood with calcium ionophore A23187 stimulates the production of LTB₄. This LTB₄ production can be inhibited by a lipoxygenase inhibitor in vitro by incubating the blood with the inhibitor prior to A23187 challenge. By dosing squirrel monkeys with a lipoxygenase inhibitor prior to withdrawal of a blood sample, one can determine the ability of the lipoxygenase inhibitor to be absorbed into the bloodstream by measuring the inhibition of A23187 induced LTB₄ production ex vivo.
Squirrel monkeys (400-650g) were fasted for 18 hours, anesthetized and dosed either orally or intraperitoneally with test compound. After the desired time period, blood was withdrawn from the femoral vein. The blood (0.5 mL) was heparinized, preincubated at 37°C for 5 minutes and stimulated with A23187 in DMSO to give a final concentration of 30 microM. The reaction was terminated with EGTA (final concentration 10 microM), and the blood centrifuged. Levels of LTB₄ in the plasma were then determined by radioimmunoassay.
The results shown in Table 4 illustrate the ability of a prodrug of type 2a or 2b to be absorbed after ip or po dosing compared to the parent compound 1a.

[4] = 1 h, 30 mg/kg ip, 60 min after dosing, vehicle per footnotes 2-4, read-out: Percent Inh. Monkey 2
[5] = 1 h, 30 mg/kg ip, 60 min after dosing, vehicle per footnotes 2-4, read-out: Percent Inh. Monkey 3
[6] = 1 h, 30 mg/kg ip, 60 min after dosing, vehicle per footnotes 2-4, read-out: Percent Inh. Monkey #1
[7] = 1 h, 30 mg/kg po, 60 min after dosing, vehicle per footnotes 2-4, read-out: Percent Inh. Monkey 2
[8] = 1 h, 30 mg/kg po, 60 min after dosing, vehicle per footnotes 2-4, read-out: Percent Inh. Monkey #1

SMILES	inhibition at 1 µM (5-lipoxygenase [1])	other results
C=CCc1cc(C=Cc2cccnc2)cc(C)c1O [Compound 1ac]	61%	–
COc1ccc(C=Cc2cc(C(C)C)c(O)c(C(C)C)c2)cc1 [Compound 1av]	71%	–
COc1ccc(C=Cc2cc(C(C)C)c(O)c(C(C)C)c2)cc1OC [Compound 1aw]	57%	–
CC(C)c1cc(C=Cc2ccc(F)cc2)cc(C(C)C)c1O [Compound 1ax]	32%	–
COc1ccc(C=Cc2cc(F)c(O)c(OC)c2)cc1 [Compound 1az]	63%	–
Cc1ccc(C=Cc2cc(C)c(O)c(C)c2)s1 [Compound 1c]	62%	–
C=CCc1cc(C=Cc2cccs2)cc(C)c1O [Compound 1h]	70%	% Inh. PMN (5-lipoxygenase [2]; 10 mg/kg ip): 46%; % Inh. Total Cells (5-lipoxygenase [2]; 10 mg/kg ip): 55%
CC(C)c1cc(C=Cc2cccs2)cc(C(C)C)c1O [Compound 1j]	78%	–
Cc1cc(C=Cc2cccs2)cc(Cl)c1O [Compound 1l]	84%	–
C=CCc1cc(C=Cc2ccsc2)cc(C)c1O [Compound 1v]	75%	–
Cc1cc(C=Cc2ccccn2)cc(C)c1O [Compound 1w]	77%	–
COc1cc(C=Cc2cccnc2)cc(C)c1O [Compound 1z]	52%	–
Cc1cc(C=Cc2cccs2)cc(C)c1OC(=O)CCC(=O)O [Compound 2a, 2,6-Dimethyl-4-[2-(2-thienyl)ethenyl]phenyl succinate]	–	% Inh. PMN (5-lipoxygenase [2]; 10 mg/kg po): 93%; % Inh. Total Cells (5-lipoxygenase [2]; 10 mg/kg po): 89%; inhibition at 30 mg/kg [3, 4]: 83%; inhibition at 30 mg/kg [3, 5]: 89%; inhibition at 30 mg/kg [3, 6]: 62%; inhibition at 30 mg/kg [3, 7]: 71%; inhibition at 30 mg/kg ([3]; 1 h, 30 mg/kg po, 60 min after dosing, vehicle per footnotes 2-4, read-out: Percent Inh. Monkey 3): 66%; inhibition at 30 mg/kg [3, 8]: 50%; inhibition at 30 mg/kg ([3]; 2 h, 30 mg/kg po, 120 min after dosing, dissolved in dilute alkali, read-out: Percent Inh. Monkey 2): 100%; inhibition at 30 mg/kg ([3]; 2 h, 30 mg/kg po, 120 min after dosing, dissolved in dilute alkali, read-out: Percent Inh. Monkey 3): 61%; inhibition at 30 mg/kg ([3]; 2 h, 30 mg/kg po, 120 min after dosing, dissolved in dilute alkali, read-out: Percent Inh. Monkey #1): 41%; inhibition at 30 mg/kg ([3]; 4 h, 30 mg/kg po, 240 min after dosing, dissolved in dilute alkali, read-out: Percent Inh. Monkey 2): 65%; inhibition at 30 mg/kg ([3]; 4 h, 30 mg/kg po, 240 min after dosing, dissolved in dilute alkali, read-out: Percent Inh. Monkey 3): 100%; inhibition at 30 mg/kg ([3]; 4 h, 30 mg/kg po, 240 min after dosing, dissolved in dilute alkali, read-out: Percent Inh. Monkey #1): 43%
Cc1cc(C=Cc2cccs2)cc(C)c1OC(=O)CN [Compound 2b, 2,6-Dimethyl-4-[2-(2-thienyl)ethenyl]phenyl glycinate hydrochloride]	–	inhibition at 30 mg/kg ([3]; 1 h, 24 mg/kg instead of 30 mg/kg po, 60 min after dosing, dissolved in distilled water, read-out: Percent Inh. Monkey 3): 33%; inhibition at 30 mg/kg [3, 4]: 56%; inhibition at 30 mg/kg [3, 5]: 69%; inhibition at 30 mg/kg [3, 6]: 78%; inhibition at 30 mg/kg [3, 7]: 54%; inhibition at 30 mg/kg [3, 8]: 62%

Now from value to compound, other results behind:

inhibition at 1 µM (5-lipoxygenase [1])	SMILES	other results
59%	CCc1cc(C=Cc2cccnc2)cc(CC)c1O [Compound 1aa]	–
34%	CC(C)c1cc(C=Cc2cccc(C(F)(F)F)c2)cc(C(C)C)c1O [Compound 1ay]	–
77%	Cc1cc(C=Cc2ccc(Cl)s2)cc(C)c1O [Compound 1b]	–
76%	COc1cc(C=Cc2ccc(Cl)s2)cc(C)c1O [Compound 1g]	–
70%	CCc1cc(C=Cc2cccs2)cc(CC)c1O [Compound 1i, 2,6-Diethyl-4-[2-(2-thienyl)ethenyl]phenol]	% Inh. PMN (5-lipoxygenase [2]; 30 mg/kg ip): 74%; % Inh. Total Cells (5-lipoxygenase [2]; 30 mg/kg ip): 51%; % Inh. PMN (5-lipoxygenase [2]; 30 mg/kg po): 51%; % Inh. Total Cells (5-lipoxygenase [2]; 30 mg/kg po): 65%
65%	Cc1cc(C=Cc2cccs2)cc(F)c1O [Compound 1k]	–
65%	COc1cc(C=Cc2cccs2)cc(F)c1O [Compound 1m]	–
78%	COc1cc(C=Cc2cccs2)cc(OC)c1O [Compound 1n]	–
70%	COc1cc(C=Cc2ccsc2)cc(C)c1O [Compound 1p]	–
77%	COc1cc(C=Cc2ccsc2)cc(OC)c1O [Compound 1q]	–
82%	CCc1cc(C=Cc2ccsc2)cc(OC)c1O [Compound 1r]	–
75%	Cc1cc(C=Cc2ccsc2)cc(Cl)c1O [Compound 1s]	–
59%	COc1cc(C=Cc2ccsc2)cc(F)c1O [Compound 1t]	–
66%	CCc1cc(C=Cc2ccsc2)cc(CC)c1O [Compound 1u]	–
46%	Cc1cc(C=Cc2ccncc2)cc(C)c1O [Compound 1y]	–

Reference: patent EP0334119A1, “Compounds for inhibiting the biosynthesis of lipoxygenase-derived metabolites of arachidonic acid” (BOEHRINGER INGELHEIM PHARMACEUTICALS INC., priority 1988, dated 1989)
